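Values below derive from 48-hour exposures of cells grown in 96-well plates, with endpoints linearly interpolated between the two concentrations bracketing the appropriate inhibition level. At the TGI there is no net growth.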
Experiments:
Assay in all cases: NCI anticancer screen, dose series, 48 h
A549 NSCLC = tested on: A549 NSCLC
COLO 205 colon = tested on: COLO 205 colon
DU-145 prostate = tested on: DU-145 prostate
HCT-116 colon = tested on: HCT-116 colon
HCT-15 colon = tested on: HCT-15 colon
HOP-62 NSCLC = tested on: HOP-62 NSCLC
HOP-92 NSCLC = tested on: HOP-92 NSCLC
HT29 colon = tested on: HT29 colon
KM12 colon = tested on: KM12 colon
MCF7 breast = tested on: MCF7 breast
NCI-H460 lung = tested on: NCI-H460 lung
OVCAR-3 ovarian = tested on: OVCAR-3 ovarian
OVCAR-5 ovarian = tested on: OVCAR-5 ovarian
PC-3 prostate = tested on: PC-3 prostate
SF-295 CNS = tested on: SF-295 CNS
SNB-75 CNS = tested on: SNB-75 CNS
UACC-257 melanoma = tested on: UACC-257 melanoma
UO-31 renal = tested on: UO-31 renal
CAKI-1 renal = tested on: CAKI-1 renal
HS 578T breast = tested on: HS 578T breast

Structure (SMILES) | TGI (A549 NSCLC) [µM] | TGI (COLO 205 colon) [µM] | TGI (DU-145 prostate) [µM] | TGI (HCT-116 colon) [µM] | TGI (HCT-15 colon) [µM] | TGI (HOP-62 NSCLC) [µM] | TGI (HOP-92 NSCLC) [µM] | TGI (HT29 colon) [µM] | TGI (KM12 colon) [µM] | TGI (MCF7 breast) [µM] | TGI (NCI-H460 lung) [µM] | TGI (OVCAR-3 ovarian) [µM] | TGI (OVCAR-5 ovarian) [µM] | TGI (PC-3 prostate) [µM] | TGI (SF-295 CNS) [µM] | TGI (SNB-75 CNS) [µM] | TGI (UACC-257 melanoma) [µM] | TGI (UO-31 renal) [µM] | TGI (CAKI-1 renal) [µM] | TGI (HS 578T breast) [µM]
O=P1(O)C=CC2(CCCC2)O1 | > 100 | > 100 | > 100 | > 100 | > 100 | > 100 | > 100 | > 100 | > 100 | > 100 | > 100 | > 100 | > 100 | > 100 | > 100 | > 100 | > 100 | – | – | –
CCC(C)n1c(C)nc2c1C(=O)c1ccccc1C2=O (stereo not drawn) | > 100 | > 100 | – | > 100 | > 100 | > 100 | > 100 | > 100 | > 100 | – | 50.8 | > 100 | – | – | > 100 | > 100 | 93.8 | > 100 | – | –
COc1ccc(C2=CC(c3ccccc3)n3nnnc3N2)cc1 (stereo not drawn) | > 100 | > 100 | > 100 | > 100 | > 100 | > 100 | – | > 100 | > 100 | > 100 | > 100 | > 100 | > 100 | > 100 | > 100 | – | > 100 | > 100 | > 100 | > 100
CCOC(=O)c1ccc(Nc2cnc3cc(C(F)(F)F)ccc3n2)cc1 | > 100 | > 100 | > 100 | > 100 | > 100 | > 100 | > 100 | > 100 | > 100 | – | > 100 | > 100 | > 100 | > 100 | > 100 | > 100 | > 100 | > 100 | > 100 | > 100
COc1ccc(/C=C2\CCC(C)C3=C(c4ccc(OC)c(OC)c4)C(C#N)=C(N)OC32)cc1OC (stereo not drawn) | – | 7.74 | > 100 | 20.2 | 38 | – | – | – | 66.5 | 19.5 | 11.1 | 48.3 | 23.6 | 38.1 | 75.9 | 8.63 | 37 | 8.4 | > 100 | > 100
O=c1cc(NCCCCCO)[nH]c(=O)[nH]1 | > 100 | > 100 | – | > 100 | > 100 | > 100 | > 100 | > 100 | > 100 | > 100 | > 100 | > 100 | > 100 | > 100 | > 100 | > 100 | > 100 | > 100 | > 100 | > 100
